Data from paper PMC5513037, “Examining the influence of specificity ligands and ATP-competitive ligands on the overall effectiveness of bivalent kinase inhibitors” (Proteome Science, 2017).

Columns and labels:
Experiment in all cases: KAM-matrix competition in K562 lysate;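 for 0.001 uM KAM: median log10 fold change of treatment over DMSO control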;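 for 0.01 uM KAM: median log10 fold change of treatment over DMSO control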;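 for 0.1 uM KAM: median log10 fold change of treatment over DMSO control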;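 for 1 uM KAM: median log10 fold change of treatment over DMSO control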;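 for 10 uM KAM: median log10 fold change of treatment over DMSO control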
Assay type in all cases: binding
CDK12 = target: T1, CDK12 (Homo sapiens, UniProt Q9NYV4)
T1 construct: endogenous in cells; host or cells: K562
Procedure: (§1) Supplement 12953_2017_125_MOESM1_ESM.zip/MS_Supp Info.xlsx, sheet "KAM" | column: 10 uM KAM; 1 uM KAM; 0.1 uM KAM; 0.01 uM KAM; 0.001 uM KAM; RB50

SRC = target: T2, SRC (Homo sapiens, UniProt P12931)
T2 construct: endogenous in cells; host or cells: K562
Procedure: as §1

RET = target: T3, RET (Homo sapiens, UniProt P07949)
T3 construct: endogenous in cells; host or cells: K562
Procedure: as §1

MAPK9 = target: T4, MAPK9 (Homo sapiens, UniProt P45984)
T4 construct: endogenous in cells; host or cells: K562
Procedure: as §1

MAP3K6 = target: T5, MAP3K6 (Homo sapiens, UniProt O95382)
T5 construct: endogenous in cells; host or cells: K562
T5 sequence (O95382 1-1288): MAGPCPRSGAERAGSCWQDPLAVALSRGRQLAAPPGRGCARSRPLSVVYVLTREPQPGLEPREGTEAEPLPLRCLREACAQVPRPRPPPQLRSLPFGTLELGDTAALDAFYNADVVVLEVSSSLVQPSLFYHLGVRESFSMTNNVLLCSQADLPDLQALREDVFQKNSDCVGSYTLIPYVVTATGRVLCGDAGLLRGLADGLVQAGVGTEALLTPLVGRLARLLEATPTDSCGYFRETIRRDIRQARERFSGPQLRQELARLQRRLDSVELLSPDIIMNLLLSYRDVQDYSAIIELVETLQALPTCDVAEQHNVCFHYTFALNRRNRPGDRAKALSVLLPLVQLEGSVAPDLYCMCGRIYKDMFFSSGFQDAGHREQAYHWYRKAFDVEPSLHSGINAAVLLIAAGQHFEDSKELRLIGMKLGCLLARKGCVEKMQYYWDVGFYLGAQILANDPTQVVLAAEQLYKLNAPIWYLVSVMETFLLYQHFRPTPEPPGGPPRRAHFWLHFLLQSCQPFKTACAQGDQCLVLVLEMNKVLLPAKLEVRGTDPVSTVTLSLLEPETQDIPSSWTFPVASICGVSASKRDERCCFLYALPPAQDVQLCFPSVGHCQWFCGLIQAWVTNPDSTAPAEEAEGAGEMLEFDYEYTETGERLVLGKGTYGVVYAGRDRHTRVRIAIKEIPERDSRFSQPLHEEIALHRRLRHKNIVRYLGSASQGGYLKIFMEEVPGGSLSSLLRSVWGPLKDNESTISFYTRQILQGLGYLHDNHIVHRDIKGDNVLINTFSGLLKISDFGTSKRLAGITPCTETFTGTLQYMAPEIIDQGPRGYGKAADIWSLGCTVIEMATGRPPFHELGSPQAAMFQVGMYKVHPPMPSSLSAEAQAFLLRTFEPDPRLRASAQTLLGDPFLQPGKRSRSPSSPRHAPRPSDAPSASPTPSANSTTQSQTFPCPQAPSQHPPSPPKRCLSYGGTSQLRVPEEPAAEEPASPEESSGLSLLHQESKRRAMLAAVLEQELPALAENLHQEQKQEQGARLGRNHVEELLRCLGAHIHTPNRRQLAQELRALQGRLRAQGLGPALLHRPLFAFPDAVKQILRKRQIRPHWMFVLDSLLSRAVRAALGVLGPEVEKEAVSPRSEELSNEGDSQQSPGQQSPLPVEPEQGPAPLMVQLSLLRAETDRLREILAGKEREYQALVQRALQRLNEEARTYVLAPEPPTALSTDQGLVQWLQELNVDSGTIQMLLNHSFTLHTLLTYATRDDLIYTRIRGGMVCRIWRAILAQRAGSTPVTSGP
Procedure: as §1

IRAK4 = target: T6, IRAK4 (Homo sapiens, UniProt Q9NWZ3)
T6 construct: endogenous in cells; host or cells: K562
T6 sequence (Q9NWZ3 1-460): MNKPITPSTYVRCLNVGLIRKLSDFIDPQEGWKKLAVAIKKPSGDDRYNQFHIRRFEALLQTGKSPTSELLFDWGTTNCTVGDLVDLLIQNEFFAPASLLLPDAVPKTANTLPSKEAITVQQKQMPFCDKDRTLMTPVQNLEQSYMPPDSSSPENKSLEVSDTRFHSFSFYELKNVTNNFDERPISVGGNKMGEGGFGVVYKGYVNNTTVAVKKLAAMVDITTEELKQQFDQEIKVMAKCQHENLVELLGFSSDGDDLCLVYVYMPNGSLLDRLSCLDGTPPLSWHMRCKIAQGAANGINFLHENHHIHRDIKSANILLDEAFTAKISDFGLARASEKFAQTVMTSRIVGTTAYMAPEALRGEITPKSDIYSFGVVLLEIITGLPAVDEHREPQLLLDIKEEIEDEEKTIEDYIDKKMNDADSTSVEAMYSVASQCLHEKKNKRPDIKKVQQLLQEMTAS
Procedure: as §1

TNK2 = target: T7, TNK2 (Homo sapiens, UniProt Q07912);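 for 0.001 uM KAM: median log10 fold change of treatment over DMSO control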;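 for 0.01 uM KAM: median log10 fold change of treatment over DMSO control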;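 for 0.1 uM KAM: median log10 fold change of treatment over DMSO control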;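 for 1 uM KAM: median log10 fold change of treatment over DMSO control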;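 for 10 uM KAM: median log10 fold change of treatment over DMSO control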
T7 construct: endogenous in cells; host or cells: K562
Procedure: as §1

MAPK6 = target: T8, MAPK6 (Homo sapiens, UniProt Q16659)
T8 construct: endogenous in cells; host or cells: K562
Procedure: as §1

[1] = read-out: RB50 (the source's name)

T2 sequence (P12931 whole entry): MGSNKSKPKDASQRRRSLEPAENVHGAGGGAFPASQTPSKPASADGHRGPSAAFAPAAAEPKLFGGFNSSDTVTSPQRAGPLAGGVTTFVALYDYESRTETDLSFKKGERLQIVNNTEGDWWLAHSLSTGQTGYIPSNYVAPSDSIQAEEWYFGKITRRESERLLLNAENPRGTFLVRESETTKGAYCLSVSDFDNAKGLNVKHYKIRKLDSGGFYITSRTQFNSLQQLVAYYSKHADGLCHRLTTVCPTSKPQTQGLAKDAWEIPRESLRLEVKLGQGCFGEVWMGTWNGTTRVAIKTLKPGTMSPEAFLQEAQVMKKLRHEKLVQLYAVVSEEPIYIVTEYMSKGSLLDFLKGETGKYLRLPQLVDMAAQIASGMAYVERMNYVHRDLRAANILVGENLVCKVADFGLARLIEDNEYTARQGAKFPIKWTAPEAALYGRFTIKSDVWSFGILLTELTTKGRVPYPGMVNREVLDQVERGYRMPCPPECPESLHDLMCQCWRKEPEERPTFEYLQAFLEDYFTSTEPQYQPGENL
T1 sequence (Q9NYV4 whole entry): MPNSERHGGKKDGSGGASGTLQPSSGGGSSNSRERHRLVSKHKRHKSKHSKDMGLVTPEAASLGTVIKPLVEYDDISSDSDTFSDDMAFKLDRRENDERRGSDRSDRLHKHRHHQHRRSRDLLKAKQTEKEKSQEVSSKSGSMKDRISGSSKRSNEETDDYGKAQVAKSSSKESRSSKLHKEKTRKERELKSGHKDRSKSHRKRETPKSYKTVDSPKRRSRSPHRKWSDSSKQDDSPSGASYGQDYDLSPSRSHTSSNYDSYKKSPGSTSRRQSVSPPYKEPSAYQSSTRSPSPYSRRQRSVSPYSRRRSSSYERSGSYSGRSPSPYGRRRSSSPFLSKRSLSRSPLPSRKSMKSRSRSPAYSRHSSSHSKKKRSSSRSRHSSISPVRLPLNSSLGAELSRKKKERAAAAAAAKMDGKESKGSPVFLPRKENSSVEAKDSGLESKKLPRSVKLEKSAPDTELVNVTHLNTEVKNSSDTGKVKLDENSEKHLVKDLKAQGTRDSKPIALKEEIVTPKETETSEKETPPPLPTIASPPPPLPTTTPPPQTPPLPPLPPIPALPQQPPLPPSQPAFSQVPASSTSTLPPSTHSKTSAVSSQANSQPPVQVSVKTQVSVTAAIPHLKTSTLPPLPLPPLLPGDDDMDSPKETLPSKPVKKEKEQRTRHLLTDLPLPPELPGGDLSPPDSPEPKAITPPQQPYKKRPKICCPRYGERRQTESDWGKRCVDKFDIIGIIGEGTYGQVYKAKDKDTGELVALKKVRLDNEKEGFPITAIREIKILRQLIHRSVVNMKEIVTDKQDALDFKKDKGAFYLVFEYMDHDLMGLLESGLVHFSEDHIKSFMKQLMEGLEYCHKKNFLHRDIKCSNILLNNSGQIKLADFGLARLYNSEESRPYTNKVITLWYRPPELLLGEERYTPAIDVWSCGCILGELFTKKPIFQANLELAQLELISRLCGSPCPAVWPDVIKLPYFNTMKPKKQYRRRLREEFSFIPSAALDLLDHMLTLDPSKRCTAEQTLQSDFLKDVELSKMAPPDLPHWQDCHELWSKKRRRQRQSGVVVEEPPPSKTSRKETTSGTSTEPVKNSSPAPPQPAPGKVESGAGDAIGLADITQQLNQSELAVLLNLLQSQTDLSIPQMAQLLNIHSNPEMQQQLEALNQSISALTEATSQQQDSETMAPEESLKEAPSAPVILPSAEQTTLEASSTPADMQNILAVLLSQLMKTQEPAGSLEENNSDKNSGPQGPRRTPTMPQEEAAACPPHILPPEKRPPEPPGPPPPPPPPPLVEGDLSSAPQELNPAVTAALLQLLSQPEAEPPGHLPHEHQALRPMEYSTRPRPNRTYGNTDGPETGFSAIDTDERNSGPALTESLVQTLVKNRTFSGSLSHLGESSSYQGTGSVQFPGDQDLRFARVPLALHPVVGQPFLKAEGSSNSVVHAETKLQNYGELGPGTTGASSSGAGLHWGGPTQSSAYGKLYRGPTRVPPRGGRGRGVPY
T1 sequence (O75909 whole entry partner): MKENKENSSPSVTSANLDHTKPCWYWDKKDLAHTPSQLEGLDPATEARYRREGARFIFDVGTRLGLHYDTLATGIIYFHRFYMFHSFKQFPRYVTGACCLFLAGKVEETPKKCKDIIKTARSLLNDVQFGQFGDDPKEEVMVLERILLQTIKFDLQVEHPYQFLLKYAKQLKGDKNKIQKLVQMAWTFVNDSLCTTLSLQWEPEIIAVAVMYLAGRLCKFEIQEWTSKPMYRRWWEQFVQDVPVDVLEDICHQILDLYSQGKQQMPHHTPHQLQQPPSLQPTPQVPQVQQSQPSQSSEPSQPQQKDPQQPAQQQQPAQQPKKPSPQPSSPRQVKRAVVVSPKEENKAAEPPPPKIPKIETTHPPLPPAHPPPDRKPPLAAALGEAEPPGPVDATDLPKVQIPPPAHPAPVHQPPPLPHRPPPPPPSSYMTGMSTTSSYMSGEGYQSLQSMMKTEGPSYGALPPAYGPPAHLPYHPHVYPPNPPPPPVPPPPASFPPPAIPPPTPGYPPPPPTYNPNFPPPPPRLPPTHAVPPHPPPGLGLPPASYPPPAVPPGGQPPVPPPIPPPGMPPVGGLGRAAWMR
T7 sequence (Q07912 whole entry): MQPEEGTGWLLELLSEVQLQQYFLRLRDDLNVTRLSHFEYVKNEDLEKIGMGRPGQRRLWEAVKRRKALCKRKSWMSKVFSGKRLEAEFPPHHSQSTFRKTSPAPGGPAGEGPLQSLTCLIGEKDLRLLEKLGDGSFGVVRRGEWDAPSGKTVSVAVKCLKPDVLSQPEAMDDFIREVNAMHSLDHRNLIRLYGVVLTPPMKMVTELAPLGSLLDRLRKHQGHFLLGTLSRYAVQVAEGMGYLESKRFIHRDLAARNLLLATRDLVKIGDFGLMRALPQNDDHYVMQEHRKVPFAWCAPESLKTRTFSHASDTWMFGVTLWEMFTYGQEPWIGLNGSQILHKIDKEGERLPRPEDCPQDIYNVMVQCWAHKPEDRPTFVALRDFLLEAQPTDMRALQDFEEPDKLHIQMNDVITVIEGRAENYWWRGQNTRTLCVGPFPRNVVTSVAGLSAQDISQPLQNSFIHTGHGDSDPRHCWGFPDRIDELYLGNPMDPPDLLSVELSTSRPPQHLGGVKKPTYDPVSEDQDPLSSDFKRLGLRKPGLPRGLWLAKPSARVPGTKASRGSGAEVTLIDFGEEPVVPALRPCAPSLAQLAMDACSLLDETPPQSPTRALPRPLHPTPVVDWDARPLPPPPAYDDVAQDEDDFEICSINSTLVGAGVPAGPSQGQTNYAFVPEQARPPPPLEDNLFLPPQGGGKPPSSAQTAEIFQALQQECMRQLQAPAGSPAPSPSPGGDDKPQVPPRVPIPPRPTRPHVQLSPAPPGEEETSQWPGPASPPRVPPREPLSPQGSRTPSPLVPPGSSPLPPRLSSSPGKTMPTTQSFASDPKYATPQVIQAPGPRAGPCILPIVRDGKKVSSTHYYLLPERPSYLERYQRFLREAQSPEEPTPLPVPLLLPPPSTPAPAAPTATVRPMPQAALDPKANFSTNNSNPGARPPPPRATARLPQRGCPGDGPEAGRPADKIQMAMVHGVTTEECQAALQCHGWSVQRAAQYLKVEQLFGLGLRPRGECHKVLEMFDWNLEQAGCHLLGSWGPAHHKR
T8 sequence (Q16659 whole entry): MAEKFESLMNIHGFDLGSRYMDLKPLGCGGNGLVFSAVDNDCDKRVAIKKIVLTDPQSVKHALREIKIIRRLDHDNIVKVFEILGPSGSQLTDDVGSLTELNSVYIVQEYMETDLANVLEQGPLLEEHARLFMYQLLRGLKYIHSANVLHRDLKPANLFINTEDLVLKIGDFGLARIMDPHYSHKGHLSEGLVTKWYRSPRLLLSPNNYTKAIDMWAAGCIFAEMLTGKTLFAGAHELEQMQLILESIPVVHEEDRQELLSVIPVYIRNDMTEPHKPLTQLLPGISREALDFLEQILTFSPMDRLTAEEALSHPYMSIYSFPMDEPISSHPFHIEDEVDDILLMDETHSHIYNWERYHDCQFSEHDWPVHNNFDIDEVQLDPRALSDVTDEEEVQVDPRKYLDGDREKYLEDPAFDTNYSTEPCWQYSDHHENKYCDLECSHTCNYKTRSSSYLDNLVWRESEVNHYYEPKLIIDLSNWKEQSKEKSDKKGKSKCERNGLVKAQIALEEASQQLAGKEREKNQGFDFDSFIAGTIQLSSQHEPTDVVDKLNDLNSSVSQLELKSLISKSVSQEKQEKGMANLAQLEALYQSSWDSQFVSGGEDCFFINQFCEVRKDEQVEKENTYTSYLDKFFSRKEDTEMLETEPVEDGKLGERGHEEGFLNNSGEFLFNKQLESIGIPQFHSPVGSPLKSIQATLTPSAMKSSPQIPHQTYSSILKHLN
T4 sequence (P45984 whole entry): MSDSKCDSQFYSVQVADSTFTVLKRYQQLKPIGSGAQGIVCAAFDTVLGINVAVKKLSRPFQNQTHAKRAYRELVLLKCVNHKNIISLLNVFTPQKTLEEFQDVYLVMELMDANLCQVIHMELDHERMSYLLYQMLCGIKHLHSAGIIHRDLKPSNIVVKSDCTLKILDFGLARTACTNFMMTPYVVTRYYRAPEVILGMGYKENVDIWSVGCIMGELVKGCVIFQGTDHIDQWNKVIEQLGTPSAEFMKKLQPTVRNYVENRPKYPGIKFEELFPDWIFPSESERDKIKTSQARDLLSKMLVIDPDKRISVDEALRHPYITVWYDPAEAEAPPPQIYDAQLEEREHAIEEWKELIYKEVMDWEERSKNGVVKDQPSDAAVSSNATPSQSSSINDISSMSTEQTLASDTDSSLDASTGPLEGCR

With `N#CCc1ccc(Nc2nc(NCCCN)cc(Nc3cc(C4CC4)[nH]n3)n2)cc1` [KAM] the “median Log10 fold change” value (CDK12; 0.001 uM KAM) was 0.006765, the “median Log10 fold change” value (CDK12; 0.01 uM KAM) was 0.002685 and the “median Log10 fold change” value (CDK12; 0.1 uM KAM) was -0.1288. The “median Log10 fold change” value (CDK12; 1 uM KAM) was -0.2742, the “median Log10 fold change” value (CDK12; 10 uM KAM) was -0.4096 and the IC50 (CDK12; [1]) was 1.57 µM. The “median Log10 fold change” value (SRC; 0.001 uM KAM) was -0.003111, the “median Log10 fold change” value (SRC; 0.01 uM KAM) was -0.02243 and the “median Log10 fold change” value (SRC; 0.1 uM KAM) was -0.1125. For the same molecule, the “median Log10 fold change” value (SRC; 1 uM KAM) was -0.3083, the “median Log10 fold change” value (SRC; 10 uM KAM) was -0.5006 and the IC50 (SRC; [1]) was 1.1 µM. The “median Log10 fold change” value (RET; 0.001 uM KAM) was -0.129, the “median Log10 fold change” value (RET; 0.01 uM KAM) was -0.007083 and the “median Log10 fold change” value (RET; 0.1 uM KAM) was -0.09548. The “median Log10 fold change” value (RET; 1 uM KAM) was -0.3474, the “median Log10 fold change” value (RET; 10 uM KAM) was -0.5381 and the IC50 (RET; [1]) was 0.908 µM. The “median Log10 fold change” value (MAPK9; 0.001 uM KAM) was -0.01416, the “median Log10 fold change” value (MAPK9; 0.01 uM KAM) was -0.02342 and the “median Log10 fold change” value (MAPK9; 0.1 uM KAM) was -0.0954. For the same molecule, the “median Log10 fold change” value (MAPK9; 1 uM KAM) was -0.2518, the “median Log10 fold change” value (MAPK9; 10 uM KAM) was -0.4014 and the IC50 (MAPK9; [1]) was 2.07 µM. For the same molecule, the “median Log10 fold change” value (MAP3K6; 0.001 uM KAM) was -0.04109, the “median Log10 fold change” value (MAP3K6; 0.01 uM KAM) was -0.01116 and the “median Log10 fold change” value (MAP3K6; 0.1 uM KAM) was -0.09429. The “median Log10 fold change” value (MAP3K6; 1 uM KAM) was -0.1699, the “median Log10 fold change” value (MAP3K6; 10 uM KAM) was -0.3363 and the IC50 (MAP3K6; [1]) was 5.37 µM. For the same molecule, the “median Log10 fold change” value (IRAK4; 0.001 uM KAM) was -0.01083, the “median Log10 fold change” value (IRAK4; 0.01 uM KAM) was -0.003774 and the “median Log10 fold change” value (IRAK4; 0.1 uM KAM) was -0.1174. The “median Log10 fold change” value (IRAK4; 1 uM KAM) was -0.3495, the “median Log10 fold change” value (IRAK4; 10 uM KAM) was -0.4574 and the IC50 (IRAK4; [1]) was 0.922 µM. For the same molecule, the IC50 (TNK2; KAM 0.001-10 uM, read-out: RB50 (the source's name)) was > 10 µM, the “0.001 uM KAM” value (TNK2; relative to 0 uM KAM = 0) was 0.001973 and the “0.01 uM KAM” value (TNK2; relative to 0 uM KAM = 0) was -0.007052. The “0.1 uM KAM” value (TNK2; relative to 0 uM KAM = 0) was -0.06006, the “1 uM KAM” value (TNK2; relative to 0 uM KAM = 0) was -0.2026 and the “10 uM KAM” value (TNK2; relative to 0 uM KAM = 0) was -0.2086. The “median Log10 fold change” value (MAPK6; 0.001 uM KAM) was 0.01888, the “median Log10 fold change” value (MAPK6; 0.01 uM KAM) was 0.003428 and the “median Log10 fold change” value (MAPK6; 0.1 uM KAM) was -0.1658. The “median Log10 fold change” value (MAPK6; 1 uM KAM) was -0.3554, the “median Log10 fold change” value (MAPK6; 10 uM KAM) was -0.4572 and the IC50 (MAPK6; [1]) was 0.763 µM.
